Format in all cases: cell-based, human
Test [1] deals with pancreatic endoderm differentiations of hESCs. Nature of the test: Suspension aggregate differentiation to pancreatic endoderm after Stage 1 treatment, Q-PCR. The following applies: Stage 1 cultures treated with 0.1 μM Caffeic acid or 0.17 μM Ivermectin. The protocol: FIGS. 10A-10I are bar graphs showing the relative gene expression levels of OCT4 (FIG. 10A), MIXL (FIG. 10B), HNF1B (FIG. 10C), HNF4A (FIG. 10D), PAX4 (FIG. 10E), NGN3 (FIG. 10F), NKX2.2 (FIG. 10G), NKX6.1 (FIG. 10H), and PTF1A (FIG. 10I) after treatment of suspension aggregate cell cultures at Stages 1 with DMSO (Control), 0.1 μM Caffeic acid or 0.17 μM Ivermectin agents. Untreated control samples were collected at d0 and d1 (left panel). Treated samples were collected at d2, d3, d5, d7, d9, d11, and d13. The columns for each day of the treated samples are (from left to right): DMSO, Caffeic acid, and Ivermectin. The cultures were differentiated to the end of Stage 4. The results from an untreated, pancreatic endoderm differentiation are shown on the right, with samples collected on days 0, 1, 2, 5, 8, 10 and 14.
To further determine the effects of the above compounds (excluding those compounds that induced off-target differentiation), three selected compounds (chelerythrine chloride (FIGS. 5 & 6), caffeic acid and Ivermectin) were screened for effects on later stages of pancreatic differentiation, (such as Stages 2-5). Human ESCs were first differentiated through Stage 1 then to Stages 2 to 5 in suspension aggregate cultures similar to that above. Stage 1 cultures were treated with DMSO, caffeic acid or Ivermectin substantially as described above. Untreated control samples were collected at d0 (hESC) and d1 (FIG. 10, left panel), while treated samples were collected at days 2, 3, 5, 7, 9, 11 and 13 (FIG. 10 d2, d3, d5, d7, d9, d11 and d13 respectively). Gene expression levels in the collected samples were analyzed using Q-PCR and compared to the d0 (hESC) sample as well as qualified pancreatic endoderm (FIG. 10, right panel). The qualified pancreatic endoderm control consisted of about 50% pancreatic endoderm, about 46% endocrine cells and about 4% “other” cells as determined by flow cytometry. Neither caffeic acid nor Ivermectin affected survival, growth and/or proliferation of pancreatic endoderm differentiations. […] Typical gene expression levels for Stages 3, 4 and 5 cells were normal; for example, increased expression of NKX6.1 and PTF1A at Stage 4, pancreatic endoderm (FIGS. 10H and 10I), and of NGN3 and NKX2.2 at Stage 5, endocrine precursor and endocrine cells (FIGS. 10 F and 10G) was observed.

Test [2] deals with undifferentiated hESCs growing in adherent culture. Kind of test: EC50 of cytotoxic effect on undifferentiated hESCs in adherent culture, real-time impedance assay. As to conditions: Homo sapiens, read-out: EC50 concentrations for hES cells (cytotoxic effect). The protocol:
In summary, the final three (3) candidates identified from both the primary and secondary screens (EXAMPLE 1) and the full screen of the LOPAC1280™ collection (EXAMPLE 2) were Chelerythrine Chloride, Caffeic acid and Ivermectin. FIG. 11 lists the known or inferred mode(s) of action for these three compounds, as well as their structures. EC50 values for the respective cytotoxic effects on undifferentiated hESCs growing in adherent culture were determined using real-time impedance assays.
(§1) Depletion of OCT4-positive cells during Stage 1 differentiation was examined using the plating assay described above. Stage 1 differentiations of hES cells were treated from day 1 to 2 with the candidate compounds as described in Example 2 (chelerythrine chloride, caffeic acid and Ivermectin), at their EC50 concentrations for hES cells. Plated untreated and DMSO-treated aggregates were indistinguishable, and both contained discrete clusters of OCT4-positive cells. See FIG. 13A top and bottom panels for a DMSO treated example. The intensity of OCT4-positive staining in differentiating aggregate cell cultures treated with DMSO (control) was equivalent to undifferentiated hES cells.

Test [3] concerns OCT4-positive cells in Stage 1 differentiations of hES cells. Nature of the test: Plating assay for depletion of OCT4-positive cells in Stage 1 suspension aggregates, OCT4 immunostaining. How it is done:
Human ES cell suspension aggregates were formed in rotational culture as described previously and differentiated through Stage 1 (definitive endoderm). About 20-30 aggregates were then plated per well in 4-well tissue culture dishes coated with MATRIGEL· diluted 1:200, and cultured for 24 hours in hESC medium (DMEM/F12, 10% XF-KSR, 10 ng/mL Activin A and 10 ng/mL Heregulin). This approach was intended to increase the contrast in OCT4 expression between undifferentiated hESCs and cells committed to differentiation. […] Stated in another way, mixed population cell cultures in hESC medium would potentially support expansion/proliferation of residual undifferentiated (hESCs), thereby show increased OCT4 gene expression, as compared to cells committed to differentiation, which would have decreased of OCT4 gene expression. Plated aggregates were immunostained for OCT4 protein and counterstained with DAPI, a nuclear stain (FIG. 12). The cell aggregates that were plated had flattened and spread out within a 24-hour period; while the centers of the aggregates were still domed. […] Brightly staining OCT4-positive cells were easily identified and distinguishable from the majority of OCT4 negative cells. OCT4-positive cells were generally found in clusters and most often within the domed area of a plated aggregate. […] Smaller aggregates residing in a larger aggregate may occur as a result of the initial stages of rotational culture, or the aggregation process, during which small clusters (primary aggregates) form initially. Aggregation of two or more primary aggregates likely leads to the formation of larger secondary aggregates, which can be 100-150 μm in diameter. Thus, it is possible that any single clusters of OCT4-positive cells exist at the center of a primary aggregate and resist differentiation. Such clusters would remain substantially undifferentiated and stain OCT4-positive. One hypothesis is that primary aggregates are specified to differentiation relative to their positioning in primary and secondary aggregates. For example, FIGS. 12A through 12E show a representative series of images, from small (primary) (e.g. FIGS. 12A and 12B) and larger (secondary) (e.g. FIGS. 12C-12E) plated aggregates containing OCT4-positive clusters (dark circles).
as §1
Additional experiments were performed using higher concentrations of compounds and extended effects of the compounds in cell culture plated aggregates in hESC medium for 24 or 72 hours before staining (FIGS. 15 and 16). […] Another group of Stage 1 differentiating cultures were processed in parallel, but treated with 10 μm chelerythrine chloride.

For `O=C(O)C=Cc1ccc(O)c(O)c1` [caffeic acid, 3,4-dihydroxycinnamic acid], the “Typical gene expression levels for Stages 3, 4 and 5 cells (NKX6.1, PTF1A, NGN3, NKX2.2)” value in test [1] (Q-PCR d2-d13) was “normal”. Besides, in test [1] (differentiated to end of Stage 4), the “survival, growth and/or proliferation of pancreatic endoderm differentiations (pancreatic endoderm viability)” value is given as “did not affect pancreatic endoderm viability”. In addition, the EC50 in test [2] was 100 nM. Besides, the “size of clusters of OCT4-positive cells” value in test [3] (5 or 10 μm caffeic acid, 24 hours, vs DMSO-treated (or untreated) controls) is listed as “smaller in size”. Also, the “expansion of clusters of OCT4-positive cells” value in test [3] (5 or 10 μm caffeic acid, 72 hours, vs DMSO treated control) is “did not expand substantially”. For the same compound, in test [3] (another study, 0.1 μM caffeic acid, 24 hours after plating in hESC medium (FIG. 14, BG02)), the “size of OCT4-positive clusters” value is given as “even more substantial decrease”. In addition, in test [3] (treated day 1 to 2 of Stage 1 at EC50 concentration, plated 24 hours in hESC medium, vs untreated or DMSO), the “intensity for OCT4 staining” value was “significantly decreased”.

The values are drawn from US9365830B2, “Agents and methods for inhibiting human pluripotent stem cell growth” (VIACYTE, INC., priority 2010, dated 2016).
